Reference: BindingDB's records for doi:10.1016/j.bmcl.2007.01.039 (Merck Research Laboratories, 2007)
pIC50: −log10 of the molar value.

Target: Dipeptidyl peptidase 2 (Homo sapiens, UniProt Q9UHL4)
Assay: Dipeptidyl Peptidase Inhibition Assay

| pIC50 | Compound |
| --- | --- |
| < 4.00 | C[C@@H]1C(=O)NCCCN1C(=O)C[C@H](N)Cc1cc(F)ccc1F [(3R)-4-[(3R)-3-amino-4-(2,5-difluorophenyl)butanoyl]-3-methyl-1,4-diazepan-2-one] |
| < 4.00 | C[C@@H]1C(=O)N[C@@H](C(F)(F)F)CCN1C(=O)C[C@H](N)Cc1cc(F)c(F)cc1F [(3R,7R)-4-[(3R)-3-amino-4-(2,4,5-trifluorophenyl)butanoyl]-3-methyl-7-(trifluoromethyl)-1,4-diazepan-2-one] |
